The values that follow come from ChEMBL document CHEMBL4043272, “Synthesis and in vitro biological evaluation of new pyrimidines as glucagon-like peptide-1 receptor agonists” (Bioorg Med Chem Lett, 2017).

Structures are written as SMILES. Activity calls are given as the source filed them. No cut-off for these calls is given here.

Common to all, as to assay type: cell-based
Experiment [1] deals with T1, Glucagon-like peptide 1 receptor (Mus musculus) (UniProt O35659).
T1 sequence (whole entry): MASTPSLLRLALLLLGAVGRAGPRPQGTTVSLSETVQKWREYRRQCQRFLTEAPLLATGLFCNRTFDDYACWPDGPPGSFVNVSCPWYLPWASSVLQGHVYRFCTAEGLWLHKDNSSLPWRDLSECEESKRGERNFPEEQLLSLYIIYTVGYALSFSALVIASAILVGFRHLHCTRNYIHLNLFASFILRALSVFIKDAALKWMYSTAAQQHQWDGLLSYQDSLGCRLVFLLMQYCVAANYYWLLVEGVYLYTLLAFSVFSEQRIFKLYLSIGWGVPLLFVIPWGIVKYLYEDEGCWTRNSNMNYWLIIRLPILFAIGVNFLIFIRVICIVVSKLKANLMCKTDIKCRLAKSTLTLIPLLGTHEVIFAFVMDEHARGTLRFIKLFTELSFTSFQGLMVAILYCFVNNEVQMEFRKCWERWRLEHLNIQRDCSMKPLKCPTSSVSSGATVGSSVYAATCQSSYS
Briefly: Agonist activity at GLP1 receptor in mouse BetaTC6 cells assessed as increase in insulin secretion at 10^-15 to 10^-12 M after 120 mins by sandwich ELISA.

Experiment [2] addresses T1, Glucagon-like peptide 1 receptor (Mus musculus). Nature of the experiment: Agonist activity at GLP1 receptor in mouse BetaTC6 cells assessed as increase in glucose-dependent insulin secretion at 10^-15 M after 120 mins by sandwich ELISA. Background: In an ELISA, binding on a coated surface is turned into a signal by an enzyme label.
The target is the same in experiment [3]. Nature of the experiment: Agonist activity at GLP1 receptor in mouse BetaTC6 cells assessed as increase in glucose-dependent insulin secretion at 10^-15 to 10^-9 M after 120 mins by sandwich ELISA.
For experiment [4] the target is unchanged. Briefly: Agonist activity at GLP1 receptor in mouse BetaTC6 cells assessed as increase in insulin secretion at 10^-15 to 10^-9 M after 120 mins by sandwich ELISA.
Experiment [5] has the same target. Nature of the experiment: Agonist activity at GLP1 receptor in mouse BetaTC6 cells assessed as increase in glucose-dependent insulin secretion after 120 mins by sandwich ELISA.

For the compound `c1ccc(CNc2ccnc(NC3CCCCCC3)n2)cc1`, the result in experiment [1] and in experiment [2] was Active.

Take `O=C(Nc1nccc(N/N=C/c2ccc(F)cc2)n1)NC1CCCC1`: the result in experiment [1] was Active. Also, the outcome in experiment [3] was inactive.

For `Cc1ccc(S(=O)(=O)NC(=O)Nc2ccnc(N)n2)cc1`, in experiment [4], the outcome was Active. The result in experiment [5] was inactive.
